Results taken from patent US20090023784A1, “USE OF DEFERIPRONE AND METHODS TO TREAT AND/OR PREVENT FRIEDREICH ATAXIA RESULTING FROM INTRACELLULAR MISHANDLING OF IRON” (priority 2006, published 2009).

Tested on: iron-loaded rats
Assay: Tissue iron content (ICP-MS) in iron-loaded rats treated with deferiprone
Assay type: in vivo
Conditions: 100 mg/kg daily oral gavage
Procedure: As part of a larger study comparing iron chelators, we conducted histologic examination and electron microscopy (EM) of tissues following iron loading (100 mg/kg iron dose intraperitoneally twice weekly for four weeks) in rats (200-250 g) and treatment with deferiprone. Two control groups of rats were studied, one with no iron loading (“Naïve”) and the other with iron loading but no iron chelation.
Deferiprone was administered five times weekly (daily Monday to Friday). The animals received 89 doses in 127 days of 100 mg/kg daily, by oral gavage.
Iron content in micrograms per gram dry tissue±SD as determined by ICP-MS

SMILES: Cc1c(O)c(=O)ccn1C [Deferiprone, 3-hydroxy-1,2-dimethylpyridin-4-one]
- Iron content, Skeletal Muscle (89 doses in 127 days, ±SD, Fe-control 205 ± 109, Naive 50 ± 17): 146 ± 49 micrograms per gram dry tissue
- Iron content, Thyroid (89 doses in 127 days, ±SD, Fe-control 583 ± 275, Naive 95 ± 13): 425 ± 228 micrograms per gram dry tissue
- Iron content, Kidney (89 doses in 127 days, ±SD, Fe-control 801 ± 39, Naive 305 ± 80): 642 ± 104 micrograms per gram dry tissue
- Iron content, Heart (89 doses in 127 days, ±SD, Fe-control 1,088 ± 36, Naive 276 ± 25): 586 ± 143 micrograms per gram dry tissue
- Iron content, Lung (89 doses in 127 days, ±SD, Fe-control 1,234 ± 227, Naive 376 ± 45): 1065 ± 101 micrograms per gram dry tissue
- Iron content, Liver (89 doses in 127 days, ±SD, Fe-control 11,534 ± 554, Naive 376 ± 127): 7,780 ± 1,637 micrograms per gram dry tissue
- effect on iron levels in organs (iron-loaded rats): decreased the iron levels in the liver and heart and most other organs
